Data as given in patent US20240174714A1, “TREATMENT OF SKIN DISORDERS” (priority 2021, published 2024).
Square brackets hold non-standard residues; d marks the D form. Peptide text beside a SMILES is read from it. * marks the point of attachment. NH(1-CH2NMe2-cBu) = CN(C)CC1(N*)CCC1; Benzoyl(4-F) = O=C(c1ccc(F)cc1)*; hCha = N[C@@H](CCC1CCCCC1)C(=O)O; Aib = CC(C)(N)C(=O)O; βAla = NCCC(=O)O

Key:
[1] = system: Leishmania mexicana (MNYC/BZ/62/m379); assay: In vivo model of cutaneous leishmaniasis, rump back model in C67BLC/6 mice; conditions: 20 μl 0.1% w/v in DMSO topically bid for 14 days
Excerpt: Mice. C67BLC/6 female mice were purchased from Envigo (Harlan laboratories) Indianapolis, IN, USA. 129SVE female mice were purchased from Taconic Farms, Cambridge City, IN, USA. All experimental mice were maintained at an OSU-ULAR facility in compliance with OSUIACUC.
Parasites and infection. L. mexicana (MNYC/BZ/62/m379) parasites were obtained and maintained as described previously. Promastigotes were maintained, passaged, and subsequently injected into experimental mice (5×10^6 parasites) subcutaneously into their shaven rumps. C67BLC/6 mice were infected with L. mexicana parasites for 6 weeks after which they developed lesions on their back rumps. Mice with similar lesion sizes were selected and randomized into control and treatment groups. From the beginning of treatment animals were housed individually.
Treatment. Treatment group received 20 μl of ZHAW6027 0.1% weight by volume in DMSO, twice a day (bid) for 14 days. […]
Topical drug treatments and lesion measurements. Lesion sizes were measured by using a small animal caliper twice weekly over the 14-day treatment duration and the area of the lesion was calculated by L×W, where L is the length and W is the width. […]
Quantitation of parasitic load. After 2 weeks of treatment animals were sacrificed, and the parasite load in the lesions was quantified. […] Viability of parasites was determined at 10 days of parasite culture. […]

[2] = system: Staphylococcus aureus NARSA NRS127; assay: microbe, parasite or virus in culture; type: cell-based; conditions: NARSA NRS127
[3] = system: Staphylococcus aureus ATCC BAA-1556; assay: microbe, parasite or virus in culture; type: cell-based; conditions: ATCC BAA-1556
[4] = system: Staphylococcus aureus ATCC BAA-1717; assay: microbe, parasite or virus in culture; type: cell-based; conditions: ATCC BAA-1717, Methicillin resistant; CAMHB II, 1 day at 36° C.; 6027 acetate
[5] = system: intracellular Leishmania donovani MHOM-ET-67/L82 amastigotes; assay: In vitro antiprotozoal assay, intracellular amastigotes; type: cell-based; conditions: intracellular amastigotes; read-out: L.don.InMac IC50
Method: The testing of the inventive compounds against Leishmania donovani (strain MHOM/ET/67/L82) was performed in 96 well plates at concentrations in serial dilutions. Tests were done in triplicate.

[6] = after 48 hours; donor 0.1% 6027 in DMSO; acceptor PBS + 2% Volpo; % of total 6027
Method: The ears were washed with tap water and the hairs were removed with an electric clipper. The skin was separated from the underlying cartilage from the backside of the ear by using a scalpel. After washing the skin again, it was stored in aluminium foil at −20° C. for no longer than one month.
After thawing the frozen skin, it was cut into adequate circles and the skin thickness was measured with a calliper. The skin was mounted into the FDC, tightly sealed with Teflon band and fixed in special designed holder. Then the acceptor compartment was equipped with a magnetic stirrer, filled with placebo formulation and equilibrated for one hour. To check the barrier integrity and to be sure that there are no invisible damages from skin preparation TEWL (transepidermal water loss) was measured. The FDCs were then placed in the water bath +32° C. ±1 over a magnetic stirrer (500 rpm). Due to differences of each FDC, the skin application area for drug permeation was measured and calculated for each cell in advance. Consequently, the amount of 6027 for the donor compartment had to be adjusted for the infinite-dose experiment to 284.1 μL/cm^2.
At predefined time points 50 μL samples were taken from the acceptor compartment. The missing volume was replaced with the corresponding placebo formulation.
At the end of the permeation experiment and before reassembling the FDCs, the donor compartments were washed out with 10 mL ACN:H2O (55:45).
To extract 6027 from the skin, the frozen skin was cut into small pieces and grinded by a cryogenic grinder Freezer/Mill® from Spex SamplePrep (Metuchen, USA). The setting was 10 min precooling and a rate of 10 CPS for 4 cycles with 2 minutes. The resulting powder was resuspended in 2 mL ACN:H2O (55:45). After being vortex, the mixtures were ultrasonicated with Branson Sonifier 250 (model: 101-cx03-197) from Branson Ultrasonics Corporation (Danbury, USA). The setting for ultrasonification was output control 2 and duty cycle 30% for 60 seconds. […]
The concentrations of 6027 were determined by using HPLC-MS from Agilent Technologies. […]

[7] = system: Staphylococcus aureus ATCC 33591; assay: microbe, parasite or virus in culture; type: cell-based; conditions: ATCC 33591, Methicillin resistant; 6027 acetate
[8] = system: Clostridium difficile ATCC BAA-1805; conditions: RCM, anaerobic, 2 days at 36° C., 6027 acetate
Method: The antibacterial activity of inventive compounds was determined in duplicate in a Minimum Inhibitory Concentration (MIC) assay.
The antibacterial activity of 6027 acetate was measured using the in vitro broth microdilution assay under assay conditions described by the Clinical and Laboratory Standards Institute. […] Pre-formulated DMSO stock solution (26.67 mg/mL) was provided by sponsor. The 26.67 mg/mL stock solution was then diluted in DMSO to prepare a 6.4 mg/mL working stock solution. The 6.4 mg/mL working stock solution was diluted by 2-fold serial titrations in DMSO, for a total of 11 test concentrations. A 4 μl aliquot of each dilution was added to 196 of broth medium seeded with the organism suspension in wells of a 96 well plate (bacterial count: 2 −8×10^5 colony forming units/mL final). The final volume was 200 μl in each well and the final DMSO concentration was 2 percent. Test concentrations were 128 to 0.125 μg/mL.
Following incubation, the plates were visually examined, and wells were scored for growth or complete growth inhibition to define the minimum inhibitory concentration. […] Vehicle-control and Vancomycin or Linezolid, as depicted at Table 8, were used as blank and positive controls, respectively.

[9] = system: Staphylococcus aureus NARSA VRS2; assay: microbe, parasite or virus in culture; type: cell-based
[10] = system: Staphylococcus epidermidis ATCC 12228; assay: MIC broth microdilution, method 1; type: cell-based; conditions: 6027 acetate

## CC(C)C[C@H](NC(=O)[C@H](CCC1CCCCC1)NC(=O)[C@@H]1CCCN1C(=O)c1ccc(F)cc1)C(=O)NC(C)(C)C(=O)N[C@@H](CC(C)C)C(=O)N[C@@H](CC(C)C)C(=O)NC(C)(C)C(=O)NC(C)(C)C(=O)NCCC(=O)NC1(CN(C)C)CCC1 [Compound 6027, (2S)-2-[(2S)-4-cyclohexyl-2-{[(2S)-1-(4-fluorobenzoyl)pyrrolidin-2-yl]formamido}butanamido]-N-(1-{[(1S)-1-{[(1S)-1-({1-[(1-{[2-({1-[(dimethylamino)methyl]cyclobutyl}carbamoyl)ethyl]carbamoyl}-1-methylethyl)carbamoyl]-1-methylethyl}carbamoyl)-3-methylbutyl]carbamoyl}-3-methylbutyl]carbamoyl}-1-methylethyl)-4-methylpentanamide] ({Benzoyl(4-F)}-P[hCha]L[Aib]LL[Aib][Aib][βAla]-{NH(1-CH2NMe2-cBu)})
[1]; limiting dilution assay, FIG. 2
  reduction of parasite loads in lesions compared to the control: about 3 orders of magnitude
[1]; vs vehicle (DMSO), where lesions increased, FIG. 1
  volume of the induced CL lesions over time: gradually reduced
[2]
  MIC of 6027: 2 µg/mL
[3]
  MIC of 6027: 2 µg/mL
[4]
  MIC of 6027: 1 µg/mL
[5]
  IC50: 54.2 nM
[6]
  Acceptor (%): 0.2%
  Donor (%): 79%
  Skin extraction (%) (skin penetration): 16%
[7]
  MIC of 6027: 4 µg/mL
[8]
  MIC of 6027: 0.25 µg/mL
[9]
  MIC of 6027: 2 µg/mL
[10]
  MIC of 6027: 2 µg/mL
